{"source": "paper PMC4096996", "about": "(Structure (London, England : 1993), 2013)", "key": {"AvGluR1 LBD [1]": {"biological_target": "T1, AvGluR1 LBD (Adineta vaga, UniProt E9P5T5, INS567GT)", "T1 sequence (E9P5T5 with tags, fused parts or gaps INS567GT)": "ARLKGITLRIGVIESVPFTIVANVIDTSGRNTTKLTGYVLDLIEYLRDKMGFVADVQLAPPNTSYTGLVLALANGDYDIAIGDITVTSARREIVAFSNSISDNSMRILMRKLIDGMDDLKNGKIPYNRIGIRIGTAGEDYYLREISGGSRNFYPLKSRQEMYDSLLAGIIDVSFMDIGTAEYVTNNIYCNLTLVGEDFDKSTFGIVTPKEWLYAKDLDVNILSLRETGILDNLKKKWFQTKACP", "assay": "biochemical", "type": "binding", "details": "for binding affinity: β-carbon branched amino acids"}, "AvGluR1 [2]": {"system": "AvGluR1", "details": "prior studies; ref Janovjak et al., 2011; cited from earlier work"}, "AvGluR1 [3]": {"system": "AvGluR1", "type": "cell-based, Adineta vaga", "details": "for time constant of onset of desensitization (Figure 2A traces): 2.8 mM alanine; for amplitude of response relative to glutamate: normalized to 60 μM glutamate in the same oocyte"}, "AvGluR1 LBD [4]": {"biological_target": "T1, AvGluR1 LBD", "assay": "Competitive displacement of 100 nM [3H] L-glutamate by 100 μM amino acids", "type": "binding", "details": "100 μM competing amino acid"}, "AvGluR1 LBD [5]": {"biological_target": "T1, AvGluR1 LBD", "assay": "Saturation binding of [3H] L-glutamate to AvGluR1 LBD apo protein"}, "GluR0 from Synechocystis": {"biological_target": "GluR0 from Synechocystis", "details": "read-out: Kd for glutamate, ref Chen et al., 1999; cited from earlier work"}, "AvGluR1 LBD [6]": {"biological_target": "T1, AvGluR1 LBD", "assay": "Competitive displacement of [3H] L-glutamate with NaCl substituted by HEPES", "type": "binding"}, "[7]": {"details": "displacement of 100 nM [3H] L-Glu, NaCl buffer"}, "[8]": {"details": "Kd, displacement of 100 nM [3H] L-Glu, NaCl buffer"}, "[9]": {"details": "ligand applied at 300 times the Kd"}, "[10]": {"details": "Kd in Cl−, competitive displacement of [3H] L-glutamate, NaCl reaction buffer"}}, "note": "Values joined by “and” are separate entries in the source; they are usually repeats but may differ in a detail not shown here. Equal values may be shown once.", "data": [{"compound": "Cc1o[nH]c(=O)c1CC(N)C(=O)O", "note": "(stereo not shown) [AMPA]", "values": [{"measurement": "Kd", "setting": "AvGluR1 LBD [1]; [7]", "result": 130, "unit": "µM"}, {"measurement": "activation of AvGluR1 (ligand activated ion currents)", "setting": "AvGluR1 [2]", "result": "activation"}]}, {"compound": "NC(CCCP(=O)(O)O)C(=O)O", "note": "(stereo not shown) [AP5]", "values": [{"measurement": "Kd", "setting": "AvGluR1 LBD [1]; [7]", "result": 530, "unit": "µM"}]}, {"compound": "N[C@H](CCC(=O)O)C(=O)O", "note": "[D-Glu]", "values": [{"measurement": "Kd", "setting": "AvGluR1 LBD [1]; [7]", "result": 130, "unit": "µM"}]}, {"compound": "O=[N+]([O-])c1cc2nc(O)c(O)nc2cc1[N+](=O)[O-]", "note": "[DNQX]", "values": [{"measurement": "Kd", "setting": "AvGluR1 LBD [1]; [7]", "result": 250, "unit": "µM"}]}, {"compound": "CN[C@H](CC(=O)O)C(=O)O", "note": "[NMDA]", "values": [{"measurement": "Kd", "setting": "AvGluR1 LBD [1]; [7]", "result": 9900, "unit": "µM"}]}, {"compound": "C[C@H](C[C@H](N)C(=O)O)C(=O)O", "note": "[SYM2081, 2S,4R-4-methyl glutamate]", "values": [{"measurement": "fold lower affinity for AvGluR1", "setting": "AvGluR1 LBD [1]; comparator not given", "result": 250, "unit": "fold"}, {"measurement": "Kd", "setting": "AvGluR1 LBD [1]; [7]", "result": 49.5, "unit": "µM"}]}, {"compound": "Cc1cn(C[C@H](N)C(=O)O)c(=O)n(Cc2ccsc2C(=O)O)c1=O", "note": "[UBP-310]", "values": [{"measurement": "Kd", "setting": "AvGluR1 LBD [1]; [7]", "result": 160, "unit": "µM"}]}, {"compound": "C[C@H](N)C(=O)O", "note": "[alanine]", "values": [{"measurement": "time constant of onset of desensitization (Figure 2A traces)", "setting": "AvGluR1 [3]; 60 μM glutamate", "result": 1.0, "unit": "s"}]}, {"compound": "NC(=O)C[C@H](N)C(=O)O", "note": "[asparagine]", "values": [{"measurement": "Kd", "setting": "AvGluR1 LBD [1]; [8]", "result": 81, "unit": "µM"}]}, {"compound": "N[C@@H](CC(=O)O)C(=O)O", "note": "[aspartate]", "values": [{"measurement": "effect on binding of 100 nM [3H] L-glutamate", "setting": "AvGluR1 LBD [4]", "result": "abolished"}, {"measurement": "activation of AvGluR1 (ligand activated ion currents)", "setting": "AvGluR1 [2]", "result": "activation"}]}, {"compound": "N[C@@H](CS)C(=O)O", "note": "[cysteine]", "values": [{"measurement": "Kd", "setting": "AvGluR1 LBD [1]; [8]", "result": 46, "unit": "µM"}, {"measurement": "amplitude of response relative to glutamate", "setting": "AvGluR1 [3]; [9]", "result": "86 ± 8", "unit": "%"}]}, {"compound": "N[C@@H](CCC(=O)O)C(=O)O", "note": "[glutamate, L-glutamate]", "values": [{"measurement": "Kd", "setting": "AvGluR1 LBD [5]", "result": "0.203 ± 0.018", "unit": "µM"}, {"measurement": "effect on binding of 100 nM [3H] L-glutamate", "setting": "AvGluR1 LBD [4]", "result": "abolished"}, {"measurement": "Kd", "setting": "AvGluR1 LBD [1]; [10]", "result": "0.27 ± 0.02", "unit": "µM"}, {"measurement": "Kd", "setting": "AvGluR1 LBD [1]; Kd, sequence of Kd values, Figure 1C and Table S1", "result": 0.203, "unit": "µM"}, {"measurement": "10-90% rise time", "setting": "AvGluR1 [3]; 60 μM glutamate", "result": "240 ± 67", "unit": "ms"}, {"measurement": "time constant of desensitization (single exponential)", "setting": "AvGluR1 [3]; 60 μM glutamate", "result": "626 ± 255", "unit": "ms"}, {"measurement": "time constant of onset of desensitization (Figure 2A traces)", "setting": "AvGluR1 [3]; 60 μM glutamate", "result": 1.25, "unit": "s"}, {"measurement": "inward current amplitude", "setting": "AvGluR1 [3]; 60 μM glutamate, mean ± SD, n = 9", "result": "5.1 ± 1.4", "unit": "μA"}, {"measurement": "time constant of recovery from desensitization", "setting": "AvGluR1 [3]; 60 μM glutamate, twin pulse protocol", "result": "26 s and 25.7 s"}, {"measurement": "time constant of onset of desensitization", "setting": "AvGluR1 [3]; 100 μM glutamate, wild type AvGluR1 control response (Figure 7D)", "result": 460, "unit": "ms"}, {"measurement": "extent of desensitization", "setting": "AvGluR1 [3]; [9]", "result": "complete desensitization"}, {"measurement": "activation of AvGluR1 (ligand activated ion currents)", "setting": "AvGluR1 [2]", "result": "activation"}, {"measurement": "Kd", "setting": "GluR0 from Synechocystis", "result": 0.193, "unit": "µM"}, {"measurement": "Kd", "setting": "AvGluR1 LBD [6]", "result": "0.3 ± 0.04", "unit": "µM"}]}, {"compound": "NC(=O)CC[C@H](N)C(=O)O", "note": "[glutamine]", "values": [{"measurement": "Kd", "setting": "AvGluR1 LBD [1]; [8]", "result": 37, "unit": "µM"}]}, {"compound": "CC[C@H](C)[C@H](N)C(=O)O", "note": "[isoleucine]", "values": [{"measurement": "binding affinity", "setting": "AvGluR1 LBD [1]", "result": "low affinity"}]}, {"compound": "C=C(C)[C@H]1CN[C@H](C(=O)O)[C@H]1CC(=O)O", "note": "[kainate]", "values": [{"measurement": "Kd", "setting": "AvGluR1 LBD [1]; [7]", "result": 2700, "unit": "µM"}, {"measurement": "activation of AvGluR1 (ligand activated ion currents)", "setting": "AvGluR1 [2]", "result": "activation"}]}, {"compound": "CSCC[C@H](N)C(=O)O", "note": "[methionine]", "values": [{"measurement": "Kd", "setting": "AvGluR1 LBD [1]; [10]", "result": "15.1 ± 2.5", "unit": "µM"}, {"measurement": "Kd", "setting": "AvGluR1 LBD [1]; [8]", "result": 15, "unit": "µM"}, {"measurement": "amplitude of response relative to glutamate", "setting": "AvGluR1 [3]; [9]", "result": "64 ± 7", "unit": "%"}, {"measurement": "Kd", "setting": "AvGluR1 LBD [6]", "result": "270 ± 52", "unit": "µM"}]}, {"compound": "N[C@@H](Cc1ccccc1)C(=O)O", "note": "[phenylalanine]", "values": [{"measurement": "amplitude of response relative to glutamate", "setting": "AvGluR1 [3]; [9]", "result": "33 ± 6", "unit": "%"}]}, {"compound": "N[C@@H](Cn1oc(=O)[nH]c1=O)C(=O)O", "note": "[quisqualate]", "values": [{"measurement": "Kd", "setting": "AvGluR1 LBD [1]; [8]", "result": 39, "unit": "µM"}]}, {"compound": "N[C@@H](CO)C(=O)O", "note": "[serine]", "values": [{"measurement": "activation of AvGluR1 (ligand activated ion currents)", "setting": "AvGluR1 [2]", "result": "activation"}]}, {"compound": "C[C@@H](O)[C@H](N)C(=O)O", "note": "[threonine]", "values": [{"measurement": "binding affinity", "setting": "AvGluR1 LBD [1]", "result": "low affinity"}]}, {"compound": "CC(C)[C@H](N)C(=O)O", "note": "[valine]", "values": [{"measurement": "binding affinity", "setting": "AvGluR1 LBD [1]", "result": "low affinity"}]}, {"compound": "concanavalin A", "values": [{"measurement": "effect on AvGluR1 desensitization", "setting": "AvGluR1 [3]; 0.5 mg/ml for 4 minutes", "result": "strongly attenuated"}]}]}
